Target: T1, carboxyltransferase from S. aureus (SaCT) (Staphylococcus aureus, UniProt Q2FXM7+Q5HF73)
T1 sequence (Q2FXM7 1-314): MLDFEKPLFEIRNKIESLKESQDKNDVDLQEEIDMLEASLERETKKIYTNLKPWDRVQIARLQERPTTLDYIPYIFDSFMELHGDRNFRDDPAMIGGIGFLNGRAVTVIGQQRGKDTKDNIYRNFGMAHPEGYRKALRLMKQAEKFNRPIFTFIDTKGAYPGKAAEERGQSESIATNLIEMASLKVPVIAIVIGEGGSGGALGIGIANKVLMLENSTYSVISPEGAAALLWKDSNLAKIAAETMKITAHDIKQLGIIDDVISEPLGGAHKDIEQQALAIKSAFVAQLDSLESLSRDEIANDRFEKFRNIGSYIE
T1 sequence (Q5HF73 1-285): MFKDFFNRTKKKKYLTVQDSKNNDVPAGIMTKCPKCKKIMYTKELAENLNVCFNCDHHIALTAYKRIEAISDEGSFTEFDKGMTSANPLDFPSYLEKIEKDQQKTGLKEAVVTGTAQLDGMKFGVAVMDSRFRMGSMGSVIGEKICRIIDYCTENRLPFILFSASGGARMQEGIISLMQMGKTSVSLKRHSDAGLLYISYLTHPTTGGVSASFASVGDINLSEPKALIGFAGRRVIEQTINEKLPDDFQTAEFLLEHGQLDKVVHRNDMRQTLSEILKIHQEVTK
Assay: coupled citrate synthase / malate dehydrogenase assay at […] nm, reverse direction
Assay type: biochemical
Settings: 150 μM malonyl-CoA, 6 mM biocytin, pH 8.0

C[C@H]1CC(=O)NC1=O [compound 4, (3S)-Methyl-pyrrolidine-2,5-dione]
% decrease in activity at 50 nM: 65%
